Reference: the NIST ThermoML archive (doi:10.1021/je700152c)
± gives the expanded uncertainty stated by the source.

Assay: molar heat capacity at saturation pressure

Molecule `CCCCn1cc[n+](C)c1.Cc1ccc(S(=O)(=O)[O-])cc1` [1-butyl-3-methylimidazolium tosylate] has a molar heat capacity (205.31 K, Metastable crystal) of 319.1 ± 3.4 J/K/mol, a molar heat capacity (205.46 K, Crystal 1) of 296.26 ± 3.1 J/K/mol and a molar heat capacity (207.12 K, Crystal 1) of 298.09 ± 3.1 J/K/mol. For the same molecule, the molar heat capacity (207.15 K, Crystal 1) was 298.12 ± 3.1 J/K/mol, the molar heat capacity (207.23 K, Metastable crystal) was 320.66 ± 3.4 J/K/mol and the molar heat capacity (207.42 K, Crystal 1) was 298.43 ± 3.1 J/K/mol. The molar heat capacity (209.08 K, Crystal 1) was 300.36 ± 3.1 J/K/mol, the molar heat capacity (209.12 K, Crystal 1) was 300.45 ± 3.1 J/K/mol and the molar heat capacity (209.16 K, Metastable crystal) was 322.21 ± 3.4 J/K/mol. For the same molecule, the molar heat capacity (209.38 K, Crystal 1) was 300.6 ± 3.1 J/K/mol, the molar heat capacity (211.04 K, Crystal 1) was 302.62 ± 3.2 J/K/mol and the molar heat capacity (211.08 K, Metastable crystal) was 323.45 ± 3.4 J/K/mol. The molar heat capacity (211.09 K, Crystal 1) was 302.68 ± 3.2 J/K/mol, the molar heat capacity (211.34 K, Crystal 1) was 302.99 ± 3.2 J/K/mol and the molar heat capacity (213 K, Crystal 1) was 304.79 ± 3.2 J/K/mol. For the same molecule, the molar heat capacity (213 K, Metastable crystal) was 325 ± 3.4 J/K/mol, the molar heat capacity (213.05 K, Crystal 1) was 304.92 ± 3.2 J/K/mol and the molar heat capacity (213.31 K, Crystal 1) was 305.26 ± 3.2 J/K/mol. For the same molecule, the molar heat capacity (214.92 K, Metastable crystal) was 326.24 ± 3.4 J/K/mol, the molar heat capacity (214.96 K, Crystal 1) was 307.15 ± 3.2 J/K/mol and the molar heat capacity (215.01 K, Crystal 1) was 307.18 ± 3.2 J/K/mol. The molar heat capacity (215.27 K, Crystal 1) was 307.65 ± 3.2 J/K/mol, the molar heat capacity (216.84 K, Metastable crystal) was 328.11 ± 3.4 J/K/mol and the molar heat capacity (216.91 K, Crystal 1) was 309.57 ± 3.2 J/K/mol. The molar heat capacity (216.97 K, Crystal 1) was 309.61 ± 3.2 J/K/mol, the molar heat capacity (217.22 K, Crystal 1) was 309.92 ± 3.2 J/K/mol and the molar heat capacity (218.76 K, Metastable crystal) was 329.66 ± 3.4 J/K/mol. It also gave a molar heat capacity (218.87 K, Crystal 1) of 311.96 ± 3.1 J/K/mol, a molar heat capacity (218.93 K, Crystal 1) of 311.96 ± 3.1 J/K/mol and a molar heat capacity (219.18 K, Crystal 1) of 312.59 ± 3.4 J/K/mol. The molar heat capacity (220.68 K, Metastable crystal) was 331.83 ± 3.4 J/K/mol, the molar heat capacity (220.82 K, Crystal 1) was 314.45 ± 3.4 J/K/mol and the molar heat capacity (220.88 K, Crystal 1) was 314.45 ± 3.4 J/K/mol. It also gave a molar heat capacity (221.13 K, Crystal 1) of 314.76 ± 3.4 J/K/mol, a molar heat capacity (222.6 K, Metastable crystal) of 333.69 ± 3.4 J/K/mol and a molar heat capacity (222.77 K, Crystal 1) of 317.86 ± 3.4 J/K/mol. The molar heat capacity (222.83 K, Crystal 1) was 317.24 ± 3.4 J/K/mol, the molar heat capacity (223.07 K, Crystal 1) was 317.55 ± 3.4 J/K/mol and the molar heat capacity (224.51 K, Metastable crystal) was 336.8 ± 3.4 J/K/mol. The molar heat capacity (224.72 K, Crystal 1) was 321.28 ± 3.4 J/K/mol, the molar heat capacity (224.77 K, Crystal 1) was 321.9 ± 3.4 J/K/mol and the molar heat capacity (225.01 K, Crystal 1) was 321.59 ± 3.4 J/K/mol. For the same molecule, the molar heat capacity (226.41 K, Metastable crystal) was 340.21 ± 3.4 J/K/mol, the molar heat capacity (226.65 K, Crystal 1) was 326.86 ± 3.4 J/K/mol and the molar heat capacity (226.7 K, Crystal 1) was 326.55 ± 3.4 J/K/mol. The molar heat capacity (226.94 K, Crystal 1) was 328.11 ± 3.4 J/K/mol, the molar heat capacity (228.3 K, Metastable crystal) was 347.04 ± 3.7 J/K/mol and the molar heat capacity (228.56 K, Crystal 1) was 332.14 ± 3.4 J/K/mol. It also gave a molar heat capacity (228.61 K, Crystal 1) of 331.83 ± 3.4 J/K/mol, a molar heat capacity (228.85 K, Crystal 1) of 333.69 ± 3.4 J/K/mol and a molar heat capacity (230.18 K, Metastable crystal) of 352.94 ± 3.7 J/K/mol. For the same molecule, the molar heat capacity (230.47 K, Crystal 1) was 336.18 ± 3.4 J/K/mol, the molar heat capacity (230.52 K, Crystal 1) was 335.56 ± 3.4 J/K/mol and the molar heat capacity (230.75 K, Crystal 1) was 336.8 ± 3.4 J/K/mol. For the same molecule, the molar heat capacity (232.06 K, Metastable crystal) was 355.11 ± 3.7 J/K/mol, the molar heat capacity (232.37 K, Crystal 1) was 339.9 ± 3.4 J/K/mol and the molar heat capacity (232.43 K, Crystal 1) was 338.97 ± 3.4 J/K/mol. For the same molecule, the molar heat capacity (232.65 K, Crystal 1) was 340.21 ± 3.4 J/K/mol, the molar heat capacity (233.94 K, Metastable crystal) was 356.97 ± 3.7 J/K/mol and the molar heat capacity (234.27 K, Crystal 1) was 341.76 ± 3.4 J/K/mol. It also gave a molar heat capacity (234.33 K, Crystal 1) of 341.76 ± 3.4 J/K/mol, a molar heat capacity (234.55 K, Crystal 1) of 342.7 ± 3.4 J/K/mol and a molar heat capacity (235.82 K, Metastable crystal) of 358.22 ± 3.7 J/K/mol. It also gave a molar heat capacity (236.17 K, Crystal 1) of 343.94 ± 3.7 J/K/mol, a molar heat capacity (236.24 K, Crystal 1) of 343.01 ± 3.4 J/K/mol and a molar heat capacity (236.45 K, Crystal 1) of 344.25 ± 3.7 J/K/mol. It also gave a molar heat capacity (237.7 K, Metastable crystal) of 359.46 ± 3.7 J/K/mol, a molar heat capacity (238.07 K, Crystal 1) of 346.11 ± 3.7 J/K/mol and a molar heat capacity (238.14 K, Crystal 1) of 345.18 ± 3.7 J/K/mol. For the same molecule, the molar heat capacity (238.35 K, Crystal 1) was 346.42 ± 3.7 J/K/mol, the molar heat capacity (239.58 K, Metastable crystal) was 361.01 ± 3.7 J/K/mol and the molar heat capacity (239.97 K, Crystal 1) was 348.28 ± 3.7 J/K/mol. The molar heat capacity (240.04 K, Crystal 1) was 347.35 ± 3.7 J/K/mol, the molar heat capacity (240.25 K, Crystal 1) was 348.9 ± 3.7 J/K/mol and the molar heat capacity (241.45 K, Metastable crystal) was 362.87 ± 3.7 J/K/mol. For the same molecule, the molar heat capacity (241.87 K, Crystal 1) was 350.46 ± 3.7 J/K/mol, the molar heat capacity (241.94 K, Crystal 1) was 349.52 ± 3.7 J/K/mol and the molar heat capacity (242.14 K, Crystal 1) was 350.77 ± 3.7 J/K/mol. It also gave a molar heat capacity (243.33 K, Metastable crystal) of 364.42 ± 3.7 J/K/mol, a molar heat capacity (243.76 K, Crystal 1) of 352.32 ± 3.7 J/K/mol and a molar heat capacity (243.83 K, Crystal 1) of 351.7 ± 3.7 J/K/mol.
